In the METLIN SMRT retention time set (Domingo-Almenara et al. 2019):

Test: gradient 5% acetonitrile 3 min, to 50% in 2 min, to 85% in 15 min, held 3 min, 100 µL/min
Details: column: Zorbax Extend-C18 2.1 x 50 mm; eluents: water / acetonitrile, 0.1% formic acid
Outline: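 Retention times of pure standards were taken from adduct peaks that were selected by computer and manually inspected. Over 3 months, mixtures of ~100 molecules were run by HPLC–quadrupole time-of-flight mass spectrometry in positive and negative ionization mode. The Zorbax Extend-C18 column (2.1 × 50 mm, 1.8 μm) ran at 100 μL/min in water and acetonitrile, each containing 0.1% formic acid, with 40 μL dead volume and 900 μL dwell volume.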

Row | Structure (SMILES) | RP-LC retention time [s]
1 | O=S(=O)(c1ccc(Cl)cc1)N1CCC(c2nc(-c3cccc(-c4ccn[nH]4)c3)no2)CC1 | 994
2 | CCC(C)NC(=O)C1CCN(C2=NS(=O)(=O)C(c3ccc(OC)cc3)=C2C)CC1 (stereo not given) | 795
3 | O=C(CC1CCCC1)Nc1ccc2c(c1)CCC(=O)N2 | 684
4 | Cc1ccc(C)c(C(=O)Nc2ccc3c(c2)Sc2ncccc2C(=O)N3C(C)C)c1 | 922
5 | COc1ncc(C(=O)NCc2ccc(N(C)C)cc2)cn1 | 564
6 | COC(=O)c1c(C)[nH]c(C(=O)N2CCCC(C(=O)NC3CCCCC3)C2)c1C (stereo not given) | 759
7 | COc1ccc2c(c1)-c1nc(NC(=O)c3ccc(C)cc3)sc1CC2 | 1170
8 | Cc1sc2ncnc(SCC(=O)Nc3ccc(S(N)(=O)=O)cc3)c2c1C | 730
9 | Cc1cn2c(S(=O)(=O)N3CCC4(CC3)OCCO4)c(C(C)C)nc2s1 | 891
10 | COc1ccc(/C=C/c2nc(-c3ccc4oc(C)nc4c3)no2)cc1 | 1150
11 | CCCNC(=O)C1CCCN(c2ccc(SCC(=O)Nc3ccc(C)c(Cl)c3)nn2)C1 (stereo not given) | 748
12 | CC(C)N1C(=O)c2cccnc2Sc2cc(NC(=O)c3ccoc3)ccc21 | 773
13 | COc1ccc(Cl)cc1NC(=O)Nc1ccc2c(c1)C(=O)NCC2 | 748
14 | COc1ccc(N2CC(c3nc(-c4ccc(C(F)(F)F)cc4)no3)CC2=O)c(OC)c1 (stereo not given) | 1030
15 | Cc1ccc(C2=NC3(CCN(C(=O)c4ccoc4)CC3)ON2)cc1 | 752
16 | COc1cc(Br)cc2c1OC1(C)CC2NC(=O)N1c1cccc(C(=O)O)c1 (stereo not given) | 672
17 | Cc1nc(CSc2cc(C)c3ccccc3n2)cs1 | 969
18 | Cc1ccc(C(=O)NCCc2nc3cccnc3n2C(C)C)cc1C | 695
19 | O=S(=O)(Nc1cccn2c(C3CCC3)nnc12)c1cccc2cccnc12 | 749
20 | C[C@H]1CN(C(=O)C2(c3ccccc3)CC2)C[C@@H]1c1nc(-c2cccnc2)no1 | 827
21 | CC(=O)N1CCc2sc(C(=O)NCc3ccccc3Br)cc2C1 | 770
22 | Cn1c(=O)c(N2CCC(NC(=O)NCc3ccc(F)cc3)CC2)nc2cccnc21 | 771
23 | CCc1cc(=O)n(CC(=O)NCc2ccc(F)cc2)c(N2CCOCC2)n1 | 717

Row | Structure (SMILES) | RP-LC retention time [s]
24 | CCCNC(=O)CN1CCN(c2cc(C(=O)O)c3cc(NC(=O)C(C)C)ccc3n2)CC1 | 568
25 | COC(=O)c1cccc(N2C=C(C(=O)N3CCCC3)S(=O)(=O)c3ccc(F)cc32)c1 | 788
26 | CCC(C)NC(=O)c1ccc(NC(=O)C2CC2)cc1N1CCCCCC1 (stereo not given) | 738
27 | COc1ccc(CC(=O)N2CCCC2c2nc(-c3ccccc3OC)no2)cc1 (stereo not given) | 853
28 | O=C(c1cc(C2CC2)on1)N1CCCC1 | 718
29 | CC[C@@]1(O)C[C@H](OC2CC(N(C)C)C(O)C(C)O2)c2c(cc3c(c2O)C(=O)c2c(O)ccc(O)c2C3=O)[C@H]1C(=O)OC (stereo not given in full) | 717
30 | COC(=O)c1ccc(NC(=O)COc2cc(C)nc(N3CCCC3)n2)cc1 | 638
31 | O=C(Cn1nc(N2CCSCC2)c2ccccc2c1=O)Nc1ccccc1 | 890
32 | CCCn1cc(S(=O)(=O)NCc2ccccc2OC)c2cccnc21 | 890
33 | CC1CCCN(C(=O)C2CC(=O)N(c3ccccc3)C2)C1 (stereo not given) | 786
34 | CC(=O)c1ccc(N2CCN(C(=O)Cn3ccc4ccc(-c5nnc(C)o5)cc43)CC2)cc1 | 764
35 | CCNC(=O)c1ccc2c(c1)CCCN2S(=O)(=O)c1ccc(Cl)cc1 | 887
36 | Cn1c(N2CCN(C(=O)Cc3ccc(F)cc3)CC2)cc(=O)n(C)c1=O | 680
37 | CCNC(=O)Nc1ccc2c(c1)CN(CC1CCCCC1)CCO2 | 610
38 | Cn1nc(-c2nnc(-c3ccc(F)cc3)o2)c2c1CCN(S(=O)(=O)c1ccccc1F)C2 | 937
39 | O=C(NCCc1ccccc1)NC1CCCN(c2cc(-c3ccncc3)[nH]n2)C1 (stereo not given) | 620
40 | Cc1ccc(Cl)cc1N1CCN(C(=O)c2cc3sccc3n2C)CC1 | 984
41 | Cc1ccc(C(=O)N2C[C@@H]3C[C@H]2C[C@@H]3NS(C)(=O)=O)cc1F | 676
42 | Cc1ccc(-c2csc(-n3nc(C)c(CC(=O)Nc4c(C)cccc4C)c3C)n2)cc1 | 1190
43 | Cc1ccc(S(=O)(=O)N2CCC(n3c(-c4ccco4)nc4cccnc43)C2)cc1 (stereo not given) | 863
44 | CCc1nnc2cc(N3CCN(Cc4ccc(C(C)C)cc4)CC3)cnn12 | 608
45 | O=C(NCCn1cccn1)c1nn(CCOc2ccccc2)c2c1CNCC2 | 600
46 | O=C(NCc1ccccc1Br)c1cn2c(n1)COCC2 | 680

Row | Structure (SMILES) | RP-LC retention time [s]
47 | c1ccc(-c2n[nH]c(-c3ccccn3)n2)nc1 | 645
48 | COCc1cc(=O)n(CC(=O)Nc2cccc(C)c2C)c(N)n1 | 602
49 | O=C(NCc1ccc(N2CCOCC2)cc1)c1csc(-c2ccc(N3CCCC3)nc2)n1 | 635
50 | Cc1nn(-c2ccccc2)c2nc(C3CC3)cc(C(=O)NCc3ccco3)c12 | 1100
51 | Cn1nc(C(=O)Nc2cccc(-c3nnc4n3CCCC4)c2)c2ccccc21 | 712
52 | Cc1ccc(-n2nc(CO)c(C(=O)NCc3ccc4c(c3)OCO4)n2)cc1 | 940
53 | Cn1c(=O)c(N2CCN(C(=O)c3cc(F)ccc3Cl)CC2)nc2ccncc21 | 570
54 | COC(=O)c1ccc(NC(=O)c2c(OC)cc(=O)n3c2CCCC3)cc1 | 678
55 | CC(C)n1c(=O)c2ccccc2n(Cc2nc(-c3ccc4c(c3)OCO4)no2)c1=O | 1080
56 | CC(=O)NCC(=O)N1CCCn2cc(-c3ccccc3)nc21 | 570
57 | Cc1oc(CNC(=O)Nc2ccccc2Cl)nc1C(=O)N1CCCC1 | 680
58 | COc1cccc(N2CCN(c3nnc(-c4nnc(C)o4)c4ccccc34)CC2)c1 | 922
59 | COC(=O)c1cnn2c(C)c(Cc3ccc(F)cc3)c(C)nc12 | 845
60 | Cc1ccsc1C(=O)N1CCC2(CC1)CC(N1CCOCC1)CCO2 (stereo not given) | 577
61 | O=c1cc(CSc2nnc(-c3ccc4c(c3)OCO4)o2)nc2sccn12 | 727
62 | Cc1ccc(-c2nnc(CC(=O)NCCC(C)C)o2)cc1 | 829
63 | Cc1ccc(Nc2c(-c3ccc(N(C)C)cc3)nc3c(C)cccn23)cc1 | 805
64 | CC(C)(C)c1ccc(C(=O)NC2CCN(c3cc(-c4ccc(Cl)cc4)[nH]n3)C2)cc1 (stereo not given) | 976
65 | CCOC(=O)c1ccccc1NC(=O)CSc1nnc2c3cc(-c4ccc(F)cc4)nn3ccn12 | 1030
66 | Cc1nnc2ccc(N3CCC(C(=O)NCCCOC(C)C)CC3)nn12 | 643
67 | Clc1cc(I)cc(Cl)c1NC1=NCCN1 | 655
68 | O=C(CSC1CCCC1)NCCCC(=O)Nc1cccc2cccnc12 | 781
69 | CC(C)c1cc(=O)n(CC(=O)Nc2nc3c(s2)CCCC3)cn1 | 692

Row | Structure (SMILES) | RP-LC retention time [s]
70 | CN(C)CCNC(=O)C1CCCN(c2ccc(Sc3ccc(Br)cc3)nn2)C1 (stereo not given) | 648
71 | CCCCNC(=O)c1ccc2c(c1)NC(=O)C1CCCCN21 (stereo not given) | 759
72 | O=C(NCC(O)c1cccc2ccccc12)Nc1c(F)cccc1F (stereo not given) | 745
73 | Cc1ccc(C)c(NS(=O)(=O)c2cc3n(c2)CCN(C(C)C)C3=O)c1 | 794
74 | CCS(=O)(=O)N1CC(=O)N(c2ccccc2C)C(C)(C(=O)NCc2ccccc2)C1 (stereo not given) | 802
75 | Cc1nn(-c2cc(N3CCCC3)ncn2)c(C)c1CCC(=O)Nc1ccc(F)cc1Cl | 791
76 | CCOCCCNC(=O)c1ccc(-c2ccc3c(c2)CCN3C(C)=O)cc1 | 598
77 | Cc1cc(C)c(C)c(S(=O)(=O)N2CCCC2c2nc(-c3cccc(F)c3)no2)c1C (stereo not given) | 1360
78 | Cc1ccccc1CNC(=O)Cn1c(C)cc(-c2nnc(-c3ccccc3)o2)c1C | 957
79 | Cc1ccc2nc(Nc3ncc4c(n3)CC(C)CC4=O)nc(C)c2c1 (stereo not given) | 651
80 | COc1cc(-c2nc3cccc(C)n3c2Nc2ccc(C)cc2)ccc1O | 989
81 | O=C(CSc1nnc2c3cc(-c4ccc(F)cc4)nn3ccn12)Nc1ccc(F)cc1Cl | 940
82 | Cc1ccc2c(c1)N(C(=O)Cn1cc(-c3noc(-c4ccncc4)n3)nc1C)CCO2 | 735
83 | CC(=O)N(C1CC1)C1CCOC2(CCN(C(=O)Cc3c(C)noc3C)CC2)C1 (stereo not given) | 659
84 | COc1ccc(NC(=O)c2cn3c(n2)CSCC3)cc1Cl | 737
85 | CCn1cc(S(=O)(=O)N2CCC(c3noc(COCCOC)n3)CC2)cn1 | 704
86 | CCOc1cccc(-c2noc(-c3nnn4c3COC(c3ccc(OC)cc3)C4)n2)c1 (stereo not given) | 1210
87 | CCN(CC)CCNC(=O)C1(O)c2ccccc2NC(=O)N1c1ccc(C)c(C)c1 (stereo not given) | 571
88 | Cc1ccc(Cn2c(N3CCCC(C(=O)Nc4ccc(C)c(F)c4)C3)nc3ccsc3c2=O)cc1 (stereo not given) | 1170
89 | CCOCCCNC(=O)C1(C)Cn2c(ccc2-c2ccco2)C(=O)N1c1ccc(F)cc1 (stereo not given) | 808
90 | Cc1noc(-c2ccnc(-n3ncc(C(=O)NC4CCCCC4)c3C)c2)n1 | 892
